One assay deals with BB/W rats. In words: Retinal pathology in diabetic BB/W rats (basement membrane thickness, E/P ratio). Type of assay: in vivo, rat. Particulars: for BM THICKNESS (nm) ± SD (n = 3) / E/P RATIO (n = 8–10): diabetic rats. How it is done:
Four (4) groups of rats received daily insulin injections to maintain their glucose levels at about 350 mg/dl. Starting at the onset of hyperglycemia, NAALADase inhibitor 2-(3-sulfanylpropyl)-pentanedioic acid was administered daily for 6 months to one group of BB/W rats at a dose of 10 mg/kg and to a second group of BB/W rats at a dose of 30 mg/kg. A third group of BB/W rats and a fourth group of non-diabetic rats received daily vehicle treatment (50 mM Hepes buffered saline).
After six (6) months of NAALADase inhibitor or vehicle treatment, the rats were sacrificed and their eyes were removed. From each rat, one eye was processed for elastase digest while the other eye was processed for transmission electron microscopy (TEM) and basement membrane (BM) thickness.
Retinal digests were prepared using elastase on retinas as described in Layer, N. , Invest Ophthalmol Vis Sci (1993) 34:2097. Eyes were removed from recently killed BB/W rats (n=25) and age-matched transgenic controls (n=10). The retinas (n=35) were fixed at room temperature by immersing the whole eye (slit at limbus) in 4% (w/v) paraformaldehyde in 50 mmol/L Na-K phosphate buffer with 8% sucrose. The fixed retinas were rinsed in deionized water and were incubated for 3 minutes in a 37° C. agitating water bath in 40 units/mL elastase in Na-K phosphate buffer with 150 mmol/L NaCl and 5 mmol/L ethylenediamine tetraacetic acid (EDTA), pH 6.5. The tissues were washed overnight in 100 mmol/L Tris-HCL (pH 8.5) and then transferred to deionized water for removal of the loosened vitreous and digested neural elements by gentle agitation using the sides of closed forceps and the sides and ends of very fine brushes. After all loose tissues were removed, the retinas were incubated once more in fresh enzyme for 3 minutes and then subjected to a second overnight wash at room temperature in Tns-HCl buffer. On the third day, the retinas were again transferred to deionized water for additional removal of digested neural elements. The vascular network that was completely free of nonvascular elements was mounted flat by flotation in Ca^2+ and Mg^2+ free Dulbecco's PBS on siliconized slides (#S1308, Oncor, Gaithersburg, Md.). After air drying in a dust free environment, the mounts of the retinal microvasculature were stained using periodic acid Schiff reaction and hematoxylin counterstaining, as described in Luna, L., ed. Manual of Histologic Staining Methods of the Armed Forces Institute of Pathology (1968) McGraw-Hill, New York, N.Y. The preparations were then examined by light microscopy and photographed.
The stained and intact retinal whole mounts were coded and subsequent counting was done masked, as described in Cuthbertson, R., Invest Ophthalmol Vis Sci. (1986) 27:1659-1664).
Ten fields at ×100 magnification were counted for endothelial and pericyte cells using previously described morphologic criteria (see Kuwabara, T., Arch Ophthalmol. (1960) 64:904-911). In every sample, at least 200 cells were counted from the mid zone of the retina. Mean values for endothelial cell/pericyte (E/P) ratios were initially calculated in 3 retinas from each of the four (4) groups of rats.
Each eye was fixed in 4% glutaraldehyde and dissected free of sclera and choroids, then trimmed and postfixed in 1% osmium tetroxide. After dehydration and embedding, thin sections were stained with uranyl acetate and lead citrate. Initially, EM thickness of retinal capillaries from 3 non-diabetic rats receiving vehicle, 3 diabetic animals receiving 10 mg/kg 2-(3-sulfanylpropyl)-pentanedioic acid, and 3 diabetic rats receiving 30 mg/kg 2-(3-sulfanylpropyl)-pentanedioic acid were compared with 3 diabetic rats receiving a vehicle. At least 10 capillaries per eye from the inner nuclear and plexiform layers were photographed at a magnification of 10,000×. Exact magnification was determined for each set of negatives with a 28,800 line/inch calibration grid. Negatives were enlarged 3×. […]

The subject of assay [1] is male Brown Norway rats. In words: Optic nerve transection in rats, optic nerve fiber counting. Particulars: for FIBER NUMBER ± SEM / PERCENT DIFFERENCE ± SEM: 10 mg/kg daily i.p.; for PERCENT DIFFERENCE ± SEM: transected vs normal eye. Type of assay: in vivo, Rattus norvegicus. The protocol:
(§1) All experiments complied with the Association for Research in Vision and Ophthalmology Statement for the Use of Animals in Ophthalmic and Vision Research. 82 male Brown Norway rats (Rattus norvegicus), each weighing approximately 250 gm, were treated using procedures approved by the Animal Care Committee of the Johns Hopkins University School of Medicine. The rats were housed with a 12 hour light/12 hour dark cycle and fed ad libitum .
OPTIC NERVE TRANSECTION: The optic nerve was transected unilaterally in 26 rats under intraperitoneal pentobarbital anesthesia. The conjunctiva was opened with scissors and the optic nerve exposed by traction on extraocular muscles. The transection was performed with microscissors 5 mm posterior to the globe, with specific attention to avoidance of injury to major ocular blood vessels. Immediately after transection, the retina was examined ophthalmoscopically to assure that the retinal arterial blood supply was not disrupted. The conjunctiva was closed with absorbable suture and the eye dressed with antibiotic ointment. Beginning on the day of transection, the rats were treated daily with intraperitoneal injections of either a vehicle (9 rats with 50 mM HEPES-buffered saline) or a NAALADase inhibitor (8 rats with 10 mg/kg of Compound A and 9 rats with 10 mg/kg of Compound B). 5 saline treated rats, 3 Compound A treated rats and 4 Compound B treated rats were sacrificed at 2 weeks, and the remaining rats at 4 weeks, after transection.
(§2) OPTIC NERVE COUNTING: The rats were sacrificed by exsanguination under deep pentobarbital anesthesia. They were perfused through the heart with 2% paraformaldehyde/2% glutaraldehyde in 0.1 M phosphate buffer, pH 7.2, and the eyes with attached optic nerves were removed. A cross-section of the optic nerve from both experimental (glaucoma or transection) and control eyes was removed 1.5 mm posterior to the globe, 1 mm in thickness, and post-fixed in 2% osmium tetroxide in buffer. These were processed into epoxy resin, sectioned at 1 micron and stained with toluidine blue.
(§3) The area of the optic nerve cross-section was measured by outlining its outer border at 10×magnification on an image analysis system (Universal Imaging Corp., Westchester, Pa.) with Synsys digital camera and Metamorph software. Three area measurements were taken and the mean value was determined. To measure the density and fiber diameter distributions, images were captured with a 100× phase contrast objective from 10 different areas of each nerve. These were edited to eliminate non-neural objects and the size of each axon internal to the myelin sheath (its minimum diameter) and the density of axons/square mm were calculated for each image and nerve. The mean density was multiplied by total nerve area to yield fiber number for each nerve. The total fiber number in glaucoma or transection nerves was compared to the normal, fellow eye of each rat to yield a percent loss value. The number of axons counted among the 10 images was an approximately 20% sample of the 80-90,000 axons in normal rat nerves. The person measuring axon number was masked to the protocol conducted on the nerves.

Assay [2] has as its system male Brown Norway rats. The assay is described as follows: Experimental rat glaucoma (IOP elevation by hypertonic saline), optic nerve fiber counting. Type of assay: in vivo. To be noted: 10 mg/kg daily i.p. The protocol: as §1
EXPERIMENTAL GLAUCOMA: Unilateral elevation of IOP was produced in 56 rats by microinjection of hypertonic saline into episcleral veins, following procedures described in Morrison, J. et al., IOVS (March 1998) 39:526-531. Beginning on the day of IOP elevation, the rats were treated daily with intraperitoneal injections of either a vehicle (23 rats with 50 mM HEPES-buffered saline) or a NAALADase inhibitor (11 rats with 10 mg/kg of 2-[[(2,3,4,5,6-pentafluorobenzyl)hydroxyphosphinyl]-methyl]pentanedioic acid (“Compound A”) and 22 rats with 10 mg/kg of 2-(3-sulfanylpropyl)pentanedioic acid (“Compound B”)). 11 saline treated rats, 11 Compound A treated rats and 11 Compound B treated rats were sacrificed at 8 weeks, and the remaining rats at 12 weeks, after initial IOP elevation.
as §2, §3

In a further assay the target is NAALADase (Rattus norvegicus, UniProt P70627). Particulars: NAAG as substrate of NAALADase; cited from earlier work.
Sequence of NAALADase (P70627 whole entry): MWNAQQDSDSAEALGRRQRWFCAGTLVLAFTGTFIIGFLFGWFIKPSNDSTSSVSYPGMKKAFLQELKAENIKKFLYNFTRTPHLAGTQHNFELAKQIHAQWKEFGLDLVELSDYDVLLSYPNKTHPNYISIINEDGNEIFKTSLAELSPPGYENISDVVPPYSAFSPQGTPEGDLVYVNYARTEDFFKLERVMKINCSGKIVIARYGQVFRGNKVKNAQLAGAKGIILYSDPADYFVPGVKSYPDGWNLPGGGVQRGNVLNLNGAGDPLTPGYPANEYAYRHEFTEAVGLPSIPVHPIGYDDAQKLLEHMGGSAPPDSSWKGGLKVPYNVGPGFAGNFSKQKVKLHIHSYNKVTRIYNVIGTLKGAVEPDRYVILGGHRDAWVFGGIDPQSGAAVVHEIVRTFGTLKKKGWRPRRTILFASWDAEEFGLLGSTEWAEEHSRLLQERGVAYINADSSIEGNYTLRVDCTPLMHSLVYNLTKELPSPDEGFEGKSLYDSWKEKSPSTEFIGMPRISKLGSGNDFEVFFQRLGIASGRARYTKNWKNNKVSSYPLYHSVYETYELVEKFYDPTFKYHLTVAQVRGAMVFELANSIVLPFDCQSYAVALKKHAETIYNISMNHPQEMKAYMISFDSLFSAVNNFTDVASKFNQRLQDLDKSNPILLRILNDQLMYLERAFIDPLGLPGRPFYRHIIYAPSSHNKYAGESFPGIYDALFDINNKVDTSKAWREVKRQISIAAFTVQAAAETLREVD
[3] abbreviates: 10 mg/kg daily for 6 months, 10 mg/kg.
The mark [4] stands for this setting: 10 mg/kg daily for 6 months, listed as NAALADASE INHIBITOR, 10 mg/kg.
[5] abbreviates: 30 mg/kg daily for 6 months, 30 mg/kg.
[6] abbreviates: 30 mg/kg daily for 6 months, listed as NAAALADASE INHIBITOR, 30 mg/kg.
The mark [7] stands for this setting: high dose (30 mg/kg), six months, vs diabetic vehicle.
[8] abbreviates: low dose (10 mg/kg), six months, vs diabetic vehicle.
Setting [9] is: 2 weeks survival after transection.
Setting [10] is: 4 weeks survival after transection.

Peptide text beside a SMILES is read from it.

In the case of `O=C(O)CCC(CCCS)C(=O)O` (stereo not drawn) [Compound B, 2-(3-sulfanylpropyl)pentanedioic acid], the “BM THICKNESS (nm) ± SD (n = 3)” value in the assay with BB/W rats (setting [3]) is 82.3±4.07 nm; with BB/W rats (setting [4]), 82.3 ± 4.07 nm; in the assay with BB/W rats (setting [5]) it was 71.7±4.07 nm; in the assay with BB/W rats (setting [6]), 71.7 ± 4.07 nm. Moreover, the “E/P RATIO (n = 8–10)” value in the assay on BB/W rats (setting [3]) stood at 2.4±0.5; in the assay on BB/W rats (setting [4]), 2.4 ± 0.5; in the assay on BB/W rats (setting [5]), 1.9±0.4; in the assay with BB/W rats (setting [6]), 1.9 ± 0.4. Also, the “reduction in BM thickness” value in the assay on BB/W rats (setting [7]) turned out to be 29.0%. Further, the “reduction of E/P ratios” value in the assay with BB/W rats (setting [7]) was determined as 37%; in the assay with BB/W rats (setting [8]), 20%. The “decrease in BM thickness” value in the assay with BB/W rats (setting [8]) stood at 18.5%. For the same compound, the “remaining axons relative to the saline-treated rats” value in the assay with male Brown Norway rats [1] (2 weeks after transection) is listed as “twice”. Also, the “FIBER NUMBER ± SEM” value with male Brown Norway rats [1] (setting [9]) is 19,550 ± 5,091; with male Brown Norway rats [1] (setting [10]), 5,162 ± 2,509; with male Brown Norway rats [2] (8 week group), 80785 ± 2121. Also, the “PERCENT DIFFERENCE ± SEM” value with male Brown Norway rats [1] (setting [9]) is reported as 75.3 ± 6.6%; with male Brown Norway rats [1] (setting [10]), 93.4 ± 3.1%; in the assay on male Brown Norway rats [2] (8 week group, fiber number glaucoma vs normal eye, positive = fewer fibers in glaucoma eye) it was −0.82 ± 2.97%. Besides, the “IOP INTEGRAL DIFFERENCE ± SEM” value with male Brown Norway rats [2] (8 week group, glaucoma eye vs normal eye) is 116 ± 33.2 mm Hg—days. For the same compound, the “FIBER NUMBER” value in the assay on male Brown Norway rats [2] (12 week group) is reported as 90504 ± 1718. Moreover, the “PERCENT DIFFERENCE” value with male Brown Norway rats [2] (12 week group, fiber number glaucoma vs normal eye) was −3.21 ± 2.86%. Also, the “IOP INTEGRAL DIFFERENCE” value with male Brown Norway rats [2] (12 week group, glaucoma eye vs normal eye) turned out to be 109 ± 45.2 mm Hg—days.
Turning to `CC(=O)N[C@@H](CC(=O)O)C(=O)N[C@@H](CCC(=O)O)C(=O)O` [NAAG, N-acetyl-aspartyl-glutamate] (Ac-Asp-Glu-OH), the Km on NAALADase was 0.54 µM.

(Values after patent US7220780B2, “Naaladase inhibitors for treating retinal disorders and glaucoma” (Guilford Pharmaceuticals Inc., priority 2000, dated 2007).)
